Key:
Format in all cases: biochemical
full-length P-Rex2 = biological target: T1, full-length P-Rex2 (Homo sapiens, UniProt Q70Z35); assay: Liposome-based GEF activity assay, PIP3-stimulated full-length P-Rex2; settings: 40 nM P-Rex2, read-out: inhibition of PIP3-stimulated Rac-GEF activity of full-length P-Rex2
T1 construct: Full-length N-terminally EE-tagged P-Rex1, P-Rex2; made in house; host or cells: Sf9 cells (baculovirus)
Method: (§1) Full-length N-terminally EE-tagged P-Rex1, P-Rex2, the P-Rex1 DH and DHPH domains and the P-Rex2 DH domain were produced in Sf9 cells using baculoviral transduction and were purified using anti-EE beads, as previously described. Briefly, frozen pellets from 500 ml of Sf9 culture infected with P-Rex expressing high-titre baculovirus were resuspended in ice-cold lysis Sf9-cell lysis buffer 2 (1x PBS, 1% Triton X-100, 5 mM EGTA, 1 mM EDTA, 25 mM NaF, 20 mM β-glycerophosphate, 1 mM DTT, 100 µM PMSF, 10 μg/ml each of leupeptin, pepstatin A, aprotinin and antipain) for 5 min and then ultracentrifuged at 118,000 × g for 1 h at 4°C. Supernatants were incubated with pre-washed anti-EE beads for 90 min on ice with end-over-end rotation. […] Protein concentration and purity were determined by coomassie staining of SDS-PAGE gels. […]
(§2) Liposome-based GEF activity assays were carried out essentially as described, except that GEFs were incubated with inhibitor compounds prior to the assay. […] Small GTPases were isolated using anti-EE antibody-coupled Sepharose beads or glutathione Sepharose beads, as appropriate, by incubation on ice for 90 min with end-over-end rotation, four washes in ice-cold wash buffer and resuspension of beads in Ultima Gold scintillation fluid (Perkin Elmer). ^35S-GTPγS incorporation was assessed by scintillation counting (Packard 1600TR, Liquid Scintillation Analyser).

Tiam1 (full-length) = biological target: T2, Tiam1 (full-length) (Homo sapiens, UniProt Q13009); assay: Liposome-based GEF activity assay, Tiam1; settings: 10 µM, 50 nM full-length Tiam1
T2 construct: Full-length Tiam1, expressed in and purified from Sf9 cells; host or cells: Sf9 cells
Method: as §1, §2

P-Rex1 DHPH domain = biological target: T3, P-Rex1 DHPH domain (Homo sapiens, UniProt Q8TCU6); assay: Mant-GTP GEF activity assay
T3 construct: 100 nM EE-P-Rex1 DHPH domains (PREX-in1, compounds 2–10 and 30–128); made in house; host or cells: Sf9 cells (baculovirus)
Method: The mant-GTP GEF activity assay measures the binding of fluorescent 2’/3’-O-(N-Methyl-anthraniloyl)-guanosine-5’-triphosphate (mant)-GTP to Rac, making use of the spectroscopic differences between bound and free mant-GTP. P-Rex1 DHPH domain protein was diluted to 375 nM in exchange buffer (20 mM Tris, pH 7.5 RT, 50 mM NaCl, 200 mM KCl, 4 mM MgCl2, 50 μg/ml fatty-acid-free BSA). The inhibitors PREX-in1 or EHop-016 were diluted to various concentrations in exchange buffer containing 15% DMSO. 4.4 µl P-Rex1 DHPH domain protein were incubated with 1.1 µl PREX-in1 or EHop-016 for 30 min at 30°C, or were mock treated with 1.1 µl vehicle (15% DMSO). 5 μl of the P-Rex1 DHPH / inhibitor mix was then added to 10 µl of a 1.5x reaction mix containing 225 nM bacteria-derived EE-Rac1, 7.5 µM mant-GTP and 15 µM GTP in exchange buffer in a 96-well plate. Final assay concentrations were 150 nM EE-Rac1, 100 nM P-Rex1 DHPH domain, 5 μM mant-GTP, 10 µM GTP, […] fatty-acid-free BSA, 1% DMSO, and the indicated concentrations of inhibitor. Mant-GTP fluorescence was measured in real time in a PHERAstar 384-well fluorescence plate reader at 25°C for 40 min using 360 nm excitation and 440 nm emission.

T3 sequence (Q8TCU6 49-392 limits assumed): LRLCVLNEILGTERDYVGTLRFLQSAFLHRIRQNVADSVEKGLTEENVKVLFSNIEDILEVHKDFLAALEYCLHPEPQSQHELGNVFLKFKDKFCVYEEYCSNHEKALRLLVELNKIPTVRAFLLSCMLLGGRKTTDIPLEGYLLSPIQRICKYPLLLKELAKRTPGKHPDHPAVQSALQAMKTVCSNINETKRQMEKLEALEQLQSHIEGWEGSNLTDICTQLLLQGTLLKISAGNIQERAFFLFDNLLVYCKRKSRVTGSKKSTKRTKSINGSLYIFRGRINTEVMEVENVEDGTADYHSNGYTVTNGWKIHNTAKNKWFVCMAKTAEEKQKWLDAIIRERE
T1 sequence (Q70Z35 whole entry): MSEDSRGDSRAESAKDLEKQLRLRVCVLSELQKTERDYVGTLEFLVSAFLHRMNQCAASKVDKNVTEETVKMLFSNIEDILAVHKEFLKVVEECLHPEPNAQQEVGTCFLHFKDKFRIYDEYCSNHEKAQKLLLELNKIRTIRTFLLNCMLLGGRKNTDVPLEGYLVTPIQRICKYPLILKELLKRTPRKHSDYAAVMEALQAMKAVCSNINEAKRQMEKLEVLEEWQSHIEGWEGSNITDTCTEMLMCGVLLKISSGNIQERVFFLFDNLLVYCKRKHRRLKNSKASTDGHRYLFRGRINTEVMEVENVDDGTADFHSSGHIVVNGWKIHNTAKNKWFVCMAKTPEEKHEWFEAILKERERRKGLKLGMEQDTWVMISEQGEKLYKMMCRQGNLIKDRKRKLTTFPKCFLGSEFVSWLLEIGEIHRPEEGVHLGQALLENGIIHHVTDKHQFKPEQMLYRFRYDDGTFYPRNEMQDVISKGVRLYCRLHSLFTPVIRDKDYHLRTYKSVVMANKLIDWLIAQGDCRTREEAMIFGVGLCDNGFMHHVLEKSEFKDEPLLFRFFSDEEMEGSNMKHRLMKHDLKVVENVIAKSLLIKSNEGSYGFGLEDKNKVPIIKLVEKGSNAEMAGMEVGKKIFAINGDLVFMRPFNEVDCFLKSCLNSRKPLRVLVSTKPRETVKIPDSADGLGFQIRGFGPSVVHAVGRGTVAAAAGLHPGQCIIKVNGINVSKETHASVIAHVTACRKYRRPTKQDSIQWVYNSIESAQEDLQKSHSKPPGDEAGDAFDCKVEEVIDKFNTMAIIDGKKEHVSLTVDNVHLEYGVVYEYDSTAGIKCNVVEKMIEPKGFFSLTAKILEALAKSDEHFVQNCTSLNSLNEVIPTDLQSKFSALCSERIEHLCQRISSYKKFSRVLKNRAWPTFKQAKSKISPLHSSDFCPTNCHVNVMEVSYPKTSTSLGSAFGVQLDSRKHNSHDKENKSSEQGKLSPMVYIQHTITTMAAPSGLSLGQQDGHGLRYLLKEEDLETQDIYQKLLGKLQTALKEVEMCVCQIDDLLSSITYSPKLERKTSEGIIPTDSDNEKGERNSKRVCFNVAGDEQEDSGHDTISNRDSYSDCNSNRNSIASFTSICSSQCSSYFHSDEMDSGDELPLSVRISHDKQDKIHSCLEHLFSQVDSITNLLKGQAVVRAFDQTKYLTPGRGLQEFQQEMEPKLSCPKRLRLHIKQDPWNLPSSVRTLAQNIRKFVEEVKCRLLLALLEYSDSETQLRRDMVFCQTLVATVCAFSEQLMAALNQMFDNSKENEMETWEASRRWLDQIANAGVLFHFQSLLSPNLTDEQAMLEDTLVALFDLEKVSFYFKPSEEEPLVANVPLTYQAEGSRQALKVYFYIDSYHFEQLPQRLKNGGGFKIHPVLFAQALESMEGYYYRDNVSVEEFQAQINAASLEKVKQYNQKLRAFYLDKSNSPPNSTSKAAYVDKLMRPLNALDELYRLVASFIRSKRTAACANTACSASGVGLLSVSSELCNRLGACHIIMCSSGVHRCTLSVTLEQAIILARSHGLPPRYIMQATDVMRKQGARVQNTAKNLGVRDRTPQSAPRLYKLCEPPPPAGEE
T2 sequence (Q13009 whole entry): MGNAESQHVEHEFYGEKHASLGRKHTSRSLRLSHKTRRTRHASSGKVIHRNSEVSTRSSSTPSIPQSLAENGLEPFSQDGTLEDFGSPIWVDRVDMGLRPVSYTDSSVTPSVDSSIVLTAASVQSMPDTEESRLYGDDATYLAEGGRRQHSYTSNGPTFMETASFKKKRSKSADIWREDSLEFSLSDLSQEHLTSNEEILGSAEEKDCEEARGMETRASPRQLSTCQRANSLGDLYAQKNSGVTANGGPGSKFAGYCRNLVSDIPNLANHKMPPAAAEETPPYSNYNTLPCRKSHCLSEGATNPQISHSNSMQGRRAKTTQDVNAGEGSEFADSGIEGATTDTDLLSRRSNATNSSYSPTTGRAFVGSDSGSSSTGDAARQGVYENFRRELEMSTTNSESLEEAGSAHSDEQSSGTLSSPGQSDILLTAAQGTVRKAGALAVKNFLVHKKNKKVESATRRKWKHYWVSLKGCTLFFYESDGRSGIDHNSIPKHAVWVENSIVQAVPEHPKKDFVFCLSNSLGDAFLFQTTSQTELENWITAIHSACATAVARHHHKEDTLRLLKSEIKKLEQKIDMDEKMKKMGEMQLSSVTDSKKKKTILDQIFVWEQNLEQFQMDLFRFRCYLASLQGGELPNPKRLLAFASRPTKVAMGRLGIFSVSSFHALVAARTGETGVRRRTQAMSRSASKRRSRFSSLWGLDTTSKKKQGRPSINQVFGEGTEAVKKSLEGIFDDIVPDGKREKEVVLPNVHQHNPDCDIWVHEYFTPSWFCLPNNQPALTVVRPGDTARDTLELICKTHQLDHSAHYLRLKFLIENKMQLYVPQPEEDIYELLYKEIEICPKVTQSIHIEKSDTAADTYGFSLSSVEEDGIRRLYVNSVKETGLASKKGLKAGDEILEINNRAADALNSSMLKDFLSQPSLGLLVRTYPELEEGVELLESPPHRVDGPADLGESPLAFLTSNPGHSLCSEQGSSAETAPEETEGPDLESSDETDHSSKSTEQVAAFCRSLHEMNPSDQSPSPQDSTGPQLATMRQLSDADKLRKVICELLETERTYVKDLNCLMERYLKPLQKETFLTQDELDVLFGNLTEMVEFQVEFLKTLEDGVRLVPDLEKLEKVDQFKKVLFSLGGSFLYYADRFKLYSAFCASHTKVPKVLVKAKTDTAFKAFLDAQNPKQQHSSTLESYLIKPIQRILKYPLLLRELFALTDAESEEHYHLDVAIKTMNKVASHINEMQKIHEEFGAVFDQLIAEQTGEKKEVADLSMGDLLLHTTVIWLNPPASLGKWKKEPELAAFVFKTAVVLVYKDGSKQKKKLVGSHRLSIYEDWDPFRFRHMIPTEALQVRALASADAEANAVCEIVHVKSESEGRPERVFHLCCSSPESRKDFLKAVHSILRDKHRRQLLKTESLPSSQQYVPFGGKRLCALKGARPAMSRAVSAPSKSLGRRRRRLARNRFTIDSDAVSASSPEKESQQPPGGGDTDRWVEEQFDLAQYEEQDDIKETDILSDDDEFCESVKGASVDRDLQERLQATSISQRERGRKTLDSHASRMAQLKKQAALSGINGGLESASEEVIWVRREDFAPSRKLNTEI

SMILES: COc1ccc(-c2[nH]nc3c2C(c2ccc(-c4ccc(Cl)cc4)o2)C(C#N)=C(N)O3)cc1 (stereo not shown) [PREX-in1, 6-amino-4-[5-(4-chlorophenyl)-2-furyl]-3-(4-methoxyphenyl)-2,4-dihydropyrano[2,3-c]pyrazole-5-carbonitrile]
- inhibition at 10 µM (full-length P-Rex2): 82%
- effect on GEF activity of Tiam1 (Tiam1 (full-length)): none of the other GEFs were affected
- IC50 (P-Rex1 DHPH domain; 150 nM EE-Rac1, 100 nM P-Rex1 DHPH, read-out: IC50 of inhibition of P-Rex1 DHPH in mant-GTP assay): ~10 µM
- effect on P-Rex1 DHPH-dependent mant-GTP loading of Rac1 (P-Rex1 DHPH domain; 10 µM): inhibited

Source: publication PMC9645260, “Small-molecule inhibitors of P-Rex guanine-nucleotide exchange factors” (Small GTPases, 2022)
